Assay type in all cases: functional
The subject of assay [1] is Escherichia coli. Put plainly: Antimicrobial activity against streptomycin-resistant Escherichia coli J53 by agar dilution method. (In agar dilution the substance is mixed into plates at graded concentrations.)
For assay [2], the system named is Escherichia coli. The assay is described as follows: Antimicrobial activity against streptomycin-resistant Escherichia coli J53 transconjugant with qnrA1 producing urinary specimen isolate 13.52 by agar dilution method.
For assay [3], the system named is Escherichia coli. The assay is described as follows: Antimicrobial activity against Escherichia coli qnrA1 producing urinary specimen isolate 13.52 by agar dilution method. The note with it: Urine.

In brackets after ≈: the same amount, converted by molar mass. A value given as a limit tells only on which side of the number the result lay.

Consider `CC(O)[C@H]1C(=O)N2C(C(=O)O)=C(SCCNC=N)C[C@H]12` (single isomer, unassigned) [IMIPENEM ANHYDROUS], for which the minimal inhibitory concentration (MIC) – broadly, the smallest concentration in the dilution series that meets the test's criterion for growth inhibition – against Escherichia coli [1] is at most 0.025 µg/mL; in the assay on Escherichia coli [2] (J53, Urine), at most 0.025 µg/mL; against Escherichia coli [3], at most 0.025 µg/mL.
On to `CO/N=C(\C(=O)N[C@@H]1C(=O)N2C(C(=O)O)=C(CSc3nc(=O)c(O)nn3C)CS[C@H]12)c1csc(N)n1` (stereo in doubt) [CEFTRIAXONE], for which the MIC with Escherichia coli [1] is 0.047 µg/mL (≈ 0.0847 µM); with Escherichia coli [2] (J53, Urine), 8 µg/mL (≈ 14.4 µM); against Escherichia coli [3], 8 µg/mL (≈ 14.4 µM).
For the compound `CN[C@@H]1[C@H](O[C@H]2[C@H](O[C@H]3[C@H](O)[C@@H](O)[C@H](N=C(N)N)[C@@H](O)[C@@H]3N=C(N)N)O[C@@H](C)[C@]2(O)C=O)O[C@@H](CO)[C@H](O)[C@H]1O` (stereo in doubt) [STREPTOMYCIN], the MIC in the assay with Escherichia coli [1] was over 1020 µg/mL; with Escherichia coli [2] (J53, Urine) it was over 1020 µg/mL; in the assay with Escherichia coli [3] it was 192 µg/mL (≈ 330 µM).
For the compound `NCC[C@H](O)C(=O)N[C@@H]1C[C@H](N)[C@@H](O[C@H]2O[C@H](CN)[C@@H](O)[C@H](O)[C@H]2O)[C@H](O)[C@H]1O[C@H]1O[C@H](CO)[C@@H](O)[C@H](N)[C@H]1O` [AMIKACIN], the minimal inhibitory concentration (MIC) in the assay with Escherichia coli [1] is 2 µg/mL (≈ 3.42 µM); with Escherichia coli [2] (J53, Urine), 2 µg/mL (≈ 3.42 µM); against Escherichia coli [3], 4 µg/mL (≈ 6.83 µM).
As to `CC1(C)S[C@@H]2[C@H](NC(=O)[C@H](N)c3ccccc3)C(=O)N2[C@H]1C(=O)O` [AMPICILLIN], the minimal inhibitory concentration (MIC) was 8 µg/mL (≈ 22.9 µM) in the assay with Escherichia coli [1]; over 256 µg/mL in the assay on Escherichia coli [2] (J53, Urine); over 256 µg/mL against Escherichia coli [3].
For `CO/N=C(\C(=O)N[C@@H]1C(=O)N2C(C(=O)[O-])=C(C[N+]3(C)CCCC3)CS[C@H]12)c1csc(N)n1` [CEFEPIME], the MIC with Escherichia coli [1] turned out to be 0.06 µg/mL (≈ 0.125 µM); with Escherichia coli [2] (J53, Urine), 0.5 µg/mL (≈ 1.04 µM); in the assay with Escherichia coli [3], 0.5 µg/mL (≈ 1.04 µM).
`CO[C@@]1(NC(=O)Cc2cccs2)C(=O)N2C(C(=O)O)=C(COC(N)=O)CS[C@@H]21` [CEFOXITIN]: the minimum inhibitory concentration (MIC) against Escherichia coli [1] was found to be 8 µg/mL (≈ 18.7 µM); with Escherichia coli [2] (J53, Urine), 256 µg/mL (≈ 599 µM); in the assay with Escherichia coli [3] it was 32 µg/mL (≈ 74.9 µM).
In the same order, the values of `CC(C)(O/N=C(\C(=O)N[C@@H]1C(=O)N2C(C(=O)[O-])=C(C[n+]3ccccc3)CS[C@H]12)c1csc(N)n1)C(=O)O` [CEFTAZIDIME] are 0.25 µg/mL (≈ 0.457 µM), 128 µg/mL (≈ 234 µM) and 64 µg/mL (≈ 117 µM).
Take `O=C(N[C@H](CO)[C@H](O)c1ccc([N+](=O)[O-])cc1)C(Cl)Cl` [CHLORAMPHENICOL]: the MIC is 8 µg/mL (≈ 24.8 µM) against Escherichia coli [1]; 48 µg/mL (≈ 149 µM) against Escherichia coli [2] (J53, Urine); over 256 µg/mL in the assay on Escherichia coli [3].
In the same order, the values of `COc1c(N2CCNC(C)C2)c(F)cc2c(=O)c(C(=O)O)cn(C3CC3)c12` (stereo not given) [GATIFLOXACIN] are 0.012 µg/mL (≈ 0.032 µM), 1 µg/mL (≈ 2.66 µM) and 8 µg/mL (≈ 21.3 µM).
Taken in the same sequence, the figures for `NC[C@H]1O[C@H](O[C@H]2[C@H](O)[C@@H](O[C@H]3O[C@H](CO)[C@@H](O)[C@H](N)[C@H]3O)[C@H](N)C[C@@H]2N)[C@H](O)[C@@H](O)[C@@H]1O` [KANAMYCIN] were 8 µg/mL (≈ 16.5 µM), 128 µg/mL (≈ 264 µM) and 32 µg/mL (≈ 66 µM).
In the same order, the values of `C[C@H]1COc2c(N3CCN(C)CC3)c(F)cc3c(=O)c(C(=O)O)cn1c23.C[C@H]1COc2c(N3CCN(C)CC3)c(F)cc3c(=O)c(C(=O)O)cn1c23.O` [LEVOFLOXACIN] are 0.064 µg/mL, 1.5 µg/mL and 8 µg/mL.
Turning to `C[C@@H](O)[C@H]1C(=O)N2C(C(=O)O)=C(S[C@@H]3CN[C@H](C(=O)N(C)C)C3)[C@H](C)[C@H]12` [MEROPENEM], the MIC is at most 0.025 µg/mL against Escherichia coli [1]; at most 0.025 µg/mL with Escherichia coli [2] (J53, Urine); at most 0.025 µg/mL against Escherichia coli [3].
On to `CCn1cc(C(=O)O)c(=O)c2ccc(C)nc21` [NALIDIXIC ACID], for which the minimal inhibitory concentration (MIC) worked out at 4 µg/mL (≈ 17.2 µM) in the assay on Escherichia coli [1]; 128 µg/mL (≈ 551 µM) in the assay on Escherichia coli [2] (J53, Urine); 256 µg/mL (≈ 1100 µM) with Escherichia coli [3].
Regarding GENTAMICIN, the values for the minimal inhibitory concentration (MIC) in the assay on Escherichia coli [1], against Escherichia coli [2] (Urine) and in the assay with Escherichia coli [3] were 0.125 µg/mL, 2 µg/mL and 2 µg/mL, respectively.

The values are drawn from ChEMBL document CHEMBL1146202, “First report of plasmid-mediated qnrA1 in a ciprofloxacin-resistant Escherichia coli strain in Latin America” (2007).
